Results as given in PubChem BioAssay (NCI).
Where “and” joins values, the source holds several entries; their conditions need not be identical. Identical values can stand only once.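 All cell lines were grown in 96-well plates and treated with compound for 48 hours. GI50: concentration for 50% inhibition of growth. TGI marks complete inhibition of growth.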 Where a SMILES comes first, the peptide text is derived from it. [ ]: non-standard residue; d: D form. The star is where a group is joined. ξ: configuration not given here. NMeF = CN[C@@H](Cc1ccccc1)C(=O)O; NMeV = CN[C@H](C(=O)O)C(C)C; ξNMeN = CNC(CC(N)=O)C(=O)O; NMeA = CN[C@@H](C)C(=O)O; ξNMeV = CNC(C(=O)O)C(C)C; Boc = CC(C)(C)OC(=O)*

Experiments:
Assay in all cases: DTP human tumour cell line panel, 48 h
SF-268 CNS = tested on: SF-268 CNS
RPMI-8226 leukemia = tested on: RPMI-8226 leukemia
DMS 114 small cell lung = tested on: DMS 114 small cell lung
PC-3 prostate = tested on: PC-3 prostate
OVCAR-8 ovarian = tested on: OVCAR-8 ovarian
SN12C renal = tested on: SN12C renal
NCI-H23 lung = tested on: NCI-H23 lung
LOX IMVI melanoma = tested on: LOX IMVI melanoma
A549 NSCLC = tested on: A549 NSCLC
NCI-H522 lung = tested on: NCI-H522 lung
MCF7 breast = tested on: MCF7 breast
SK-MEL-28 melanoma = tested on: SK-MEL-28 melanoma
M19-MEL melanoma = tested on: M19-MEL melanoma
SK-MEL-2 melanoma = tested on: SK-MEL-2 melanoma
CCRF-CEM leukemia = tested on: CCRF-CEM leukemia
SNB-19 CNS = tested on: SNB-19 CNS
MDA-N = tested on: MDA-N
A498 renal = tested on: A498 renal
NCI/ADR-RES ovarian = tested on: NCI/ADR-RES ovarian
SW-620 colon = tested on: SW-620 colon
UACC-257 melanoma = tested on: UACC-257 melanoma
786-0 renal = tested on: 786-0 renal
RXF 393 renal = tested on: RXF 393 renal
COLO 205 colon = tested on: COLO 205 colon
T-47D breast = tested on: T-47D breast
HCT-116 colon = tested on: HCT-116 colon
HOP-92 NSCLC = tested on: HOP-92 NSCLC
DLD-1 colon = tested on: DLD-1 colon
TK-10 renal = tested on: TK-10 renal
SNB-78 CNS = tested on: SNB-78 CNS
M14 melanoma = tested on: M14 melanoma
OVCAR-5 ovarian = tested on: OVCAR-5 ovarian
EKVX NSCLC = tested on: EKVX NSCLC
MALME-3M melanoma = tested on: MALME-3M melanoma
HT29 colon = tested on: HT29 colon
UACC-62 melanoma = tested on: UACC-62 melanoma
XF 498 CNS = tested on: XF 498 CNS
MDA-MB-435 = tested on: MDA-MB-435
SF-539 CNS = tested on: SF-539 CNS
BT-549 breast = tested on: BT-549 breast
MDA-MB-231 breast = tested on: MDA-MB-231 breast
MOLT-4 leukemia = tested on: MOLT-4 leukemia
IGROV1 ovarian = tested on: IGROV1 ovarian
HCC-2998 colon = tested on: HCC-2998 colon
CAKI-1 renal = tested on: CAKI-1 renal
DMS 273 small cell lung = tested on: DMS 273 small cell lung
U251 CNS = tested on: U251 CNS
KM20L2 colon = tested on: KM20L2 colon
SR leukemia = tested on: SR leukemia
KM12 colon = tested on: KM12 colon
HL-60(TB) leukemia = tested on: HL-60(TB) leukemia
NCI-H226 lung = tested on: NCI-H226 lung
SK-OV-3 ovarian = tested on: SK-OV-3 ovarian
SNB-75 CNS = tested on: SNB-75 CNS
NCI-H460 lung = tested on: NCI-H460 lung
DU-145 prostate = tested on: DU-145 prostate
HCT-15 colon = tested on: HCT-15 colon
K-562 leukemia = tested on: K-562 leukemia
UO-31 renal = tested on: UO-31 renal
HOP-62 NSCLC = tested on: HOP-62 NSCLC
LXFL 529 NSCLC = tested on: LXFL 529 NSCLC
ACHN renal = tested on: ACHN renal
OVCAR-4 ovarian = tested on: OVCAR-4 ovarian
SK-MEL-5 melanoma = tested on: SK-MEL-5 melanoma
OVCAR-3 ovarian = tested on: OVCAR-3 ovarian
SF-295 CNS = tested on: SF-295 CNS

## COC(=O)[C@H](C)N(C)C(=O)C(CC(N)=O)N(C)C(=O)[C@H](Cc1ccccc1)N(C)C(=O)[C@@H]1CCCN1C(=O)[C@H](C(C)C)N(C)C(=O)C(C(C)C)N(C)C(=O)[C@@H](NC(=O)OC(C)(C)C)C(C)C (stereo partly specified) (Boc-V[ξNMeV][NMeV]P[NMeF][ξNMeN][NMeA]-OMe)
SF-268 CNS
  TGI: > 75 µM
RPMI-8226 leukemia
  TGI: > 5 µM
DMS 114 small cell lung
  TGI: 55.6 µM
PC-3 prostate
  TGI: > 50 µM
OVCAR-8 ovarian
  TGI: > 75 µM
SN12C renal
  TGI: > 75 µM
NCI-H23 lung
  GI50: 35.6 µM
  TGI: > 75 µM
LOX IMVI melanoma
  GI50: 26.7 µM
  TGI: > 75 µM
A549 NSCLC
  GI50: > 75 µM
  TGI: > 75 µM
NCI-H522 lung
  GI50: 34.8 µM
  TGI: > 75 µM
MCF7 breast
  TGI: > 50 µM
SK-MEL-28 melanoma
  GI50: 31.4 µM
  TGI: > 75 µM
M19-MEL melanoma
  TGI: 50.9 µM
SK-MEL-2 melanoma
  GI50: 18 µM
  TGI: > 50 µM and 48.8 µM
CCRF-CEM leukemia
  GI50: 21.8 µM
  TGI: 39.3 µM and > 75 µM
SNB-19 CNS
  GI50: > 75 µM
  TGI: > 75 µM
MDA-N
  TGI: > 50 µM
A498 renal
  GI50: 60.1 µM
  TGI: > 75 µM
NCI/ADR-RES ovarian
  TGI: > 50 µM
SW-620 colon
  GI50: 34.7 µM
  TGI: > 75 µM
UACC-257 melanoma
  TGI: > 75 µM
786-0 renal
  GI50: > 75 µM
  TGI: > 75 µM
RXF 393 renal
  TGI: 50 µM
COLO 205 colon
  GI50: > 75 µM
  TGI: > 75 µM
T-47D breast
  TGI: > 50 µM
HCT-116 colon
  GI50: 28 µM
  TGI: > 75 µM
HOP-92 NSCLC
  GI50: 17.2 µM
  TGI: 50 µM and 57.4 µM
DLD-1 colon
  TGI: > 75 µM
TK-10 renal
  GI50: 59.2 µM
  TGI: > 75 µM
SNB-78 CNS
  TGI: > 75 µM
M14 melanoma
  GI50: 31.6 µM
  TGI: > 75 µM
OVCAR-5 ovarian
  GI50: > 75 µM
  TGI: > 75 µM
EKVX NSCLC
  GI50: > 75 µM
  TGI: > 75 µM
MALME-3M melanoma
  TGI: > 75 µM
HT29 colon
  GI50: 27.2 µM
  TGI: > 75 µM
UACC-62 melanoma
  GI50: 25.8 µM
  TGI: > 75 µM
XF 498 CNS
  TGI: > 75 µM
MDA-MB-435
  TGI: > 50 µM
SF-539 CNS
  GI50: > 75 µM
  TGI: > 75 µM
BT-549 breast
  TGI: > 50 µM
MDA-MB-231 breast
  TGI: > 50 µM
MOLT-4 leukemia
  GI50: 17.1 µM
  TGI: 50 µM and 51.1 µM
IGROV1 ovarian
  GI50: 36.7 µM
  TGI: > 75 µM
HCC-2998 colon
  GI50: 38.5 µM
  TGI: > 75 µM
CAKI-1 renal
  GI50: > 75 µM
  TGI: > 75 µM
DMS 273 small cell lung
  TGI: > 75 µM
U251 CNS
  GI50: 67.1 µM
  TGI: > 75 µM
KM20L2 colon
  TGI: > 75 µM
SR leukemia
  TGI: 62.4 µM
KM12 colon
  TGI: 34 µM
HL-60(TB) leukemia
  GI50: 16.8 µM
  TGI: 35.9 µM and 36.3 µM
NCI-H226 lung
  TGI: > 75 µM
SK-OV-3 ovarian
  GI50: > 75 µM
  TGI: > 75 µM
SNB-75 CNS
  TGI: > 75 µM
NCI-H460 lung
  GI50: 25.4 µM
  TGI: > 75 µM
DU-145 prostate
  TGI: > 50 µM
HCT-15 colon
  TGI: > 75 µM
K-562 leukemia
  GI50: 33.1 µM
  TGI: > 75 µM
UO-31 renal
  GI50: 40.6 µM
  TGI: > 75 µM
HOP-62 NSCLC
  GI50: > 75 µM
  TGI: > 75 µM
LXFL 529 NSCLC
  TGI: > 75 µM
ACHN renal
  GI50: > 75 µM
  TGI: > 75 µM
OVCAR-4 ovarian
  TGI: > 75 µM
SK-MEL-5 melanoma
  GI50: 35.2 µM
  TGI: > 75 µM
OVCAR-3 ovarian
  TGI: > 75 µM
SF-295 CNS
  GI50: > 75 µM
  TGI: > 75 µM
